Data published in patent publication US20100086615A1, “AGENT FOR TREATMENT OF PULMONARY DISEASE” (KYUSHU UNIVERSITY, NATIONAL UNIVERSITY CORPORATION, priority 2007, published 2010).

Tested on: LPS-induced acute lung injury mice
Assay: Intratracheal administration in LPS-induced acute lung injury model; cells counted in bronchoalveolar lavage fluid
Type: in vivo, mice (male BALB/c)
Conditions: non-polymer-incorporated solution in saline (50 μL), intratracheal, 0.2, 2 or 20 μg/body; n=8

Q: With O=C([O-])C[C@H](O)C[C@H](O)/C=C/c1c(C2CC2)nc2ccccc2c1-c1ccc(F)cc1.O=C([O-])C[C@H](O)C[C@H](O)/C=C/c1c(C2CC2)nc2ccccc2c1-c1ccc(F)cc1.[Ca+2] [pitavastatin calcium] as the compound, how does the “Effect of inhibiting migration of inflammatory cells (result in words)” value read?
A: The value was “did not exhibit the effect of inhibiting migration of inflammatory cells”.
